The values below come from paper doi:10.1101/2021.10.07.463234v2 (biorxiv, 2021).

Counter-ions that a name gives are not always drawn.

The %inhibition is the percentage by which the read-out fell short of the control. Lower therefore signals a weak effect. By inhibition is commonly meant the change of the read-out against control, counted positive when it falls.

The first assay concerns the target SARS-CoV-2 Mac1 (Severe acute respiratory syndrome coronavirus 2, UniProt P0DTD1). The assay can be described thus: biochemical. To be noted: 100 µM; inhibitor.
Turning to `COc1ccccc1OCCNCC(O)COc1cccc2[nH]c3ccccc3c12` (stereo not drawn) [Carvedilol Phosphate], the “%inhibition” value was 0%.
With `CCc1cc2c(cc1CC)CC(NC[C@H](O)c1ccc(O)c3[nH]c(=O)ccc13)C2` [Indacaterol Maleate], the “%inhibition” value stood at 2.994%.
In the case of `O=C(O)Cc1ccccc1Nc1c(Cl)cccc1Cl` [Diclofenac Sodium], the “%inhibition” value came out at 15.35%.
For the molecule `CN1c2ccccc2C(NCCCCCCC(=O)O)c2ccc(Cl)cc2S1(=O)=O` (stereo not drawn) [Tianeptine], the “%inhibition” value is given as 12.39%.
On the same count and under the same terms, the same measure for `COc1ccnc(C[S+]([O-])c2nc3cc(OC(F)F)ccc3[nH]2)c1OC` (stereo not drawn) [Pantoprazole]: 6.936%.

The assay is the same for the next values; noted with them: read-out: %inhibition.
In the case of `CN(C)C(=N)NC(=N)N` [Metformin HCl], the inhibition at 100 µM turned out to be 32.6%.
As to `Cc1occc(=O)c1O` [Maltol], the inhibition at 100 µM was determined as 15.5%.
As for `FC(F)(F)c1ccc(/C=C/c2nc(COc3ccc(CCCCn4ccnn4)cc3)co2)cc1` [Mubritinib (TAK 165)], the inhibition at 100 µM is 0%.
Same read-out and setting: the same measure for `CC(=O)[C@H]1CC[C@H]2[C@@H]3CC=C4C[C@@H](O)CC[C@]4(C)[C@H]3CC[C@]12C` [Pregnenolone]: 14.7%; for `OCCOc1ccc(/C(=C(/CCCl)c2ccccc2)c2ccccc2)cc1` [Ospemifene]: 16.8%.
`CS(=O)(=O)c1ccc(C(=O)Nc2ccc(Cl)c(-c3ccccn3)c2)c(Cl)c1` [Vismodegib (GDC-0449)]: the inhibition at 100 µM was 0%.
As to `OC(Cn1cncn1)(Cn1cncn1)c1ccc(F)cc1F` [Fluconazole], the inhibition at 100 µM turned out to be 16.6%.
`CC(C)CN(C[C@@H](O)[C@H](Cc1ccccc1)NC(=O)O[C@H]1CO[C@H]2OCC[C@H]21)S(=O)(=O)c1ccc(N)cc1` [Darunavir Ethanolate]: the inhibition at 100 µM was 0%.
Same read-out and setting: the same measure for `CN(C)[C@@H]1C(O)=C(C(N)=O)C(=O)[C@@]2(O)C(O)=C3C(=O)c4c(O)ccc(Cl)c4[C@@](C)(O)[C@H]3C[C@@H]12` [Chlortetracycline HCl]: 1.82%.
In the case of `CCCNCC(O)COc1ccccc1C(=O)CCc1ccccc1` (stereo not drawn) [Propafenone HCl], the inhibition at 100 µM stood at 0%.
The same measure, in the same setting: then `CO[C@@]1(NC(=O)CSCC#N)C(=O)N2C(C(=O)O)=C(CSc3nnnn3C)CS[C@@H]21` [Cefmetazole sodium], with 8.58%; and `CC(C)N1CCN(c2ccc(OC[C@H]3CO[C@](Cn4cncn4)(c4ccc(Cl)cc4Cl)O3)cc2)CC1` (racemic) [Terconazole], with 4.88%; and `CC(C)(Oc1ccc(C2CC2(Cl)Cl)cc1)C(=O)O` (stereo not drawn) [Ciprofibrate], with 20.7%.
For the molecule `C[C@]12C=CC(=O)N[C@@H]1CC[C@@H]1[C@@H]2CC[C@]2(C)[C@@H](C(=O)Nc3cc(C(F)(F)F)ccc3C(F)(F)F)CC[C@@H]12` [Dutasteride], the inhibition at 100 µM is 12%.
For `CCN1CCCC1CNC(=O)c1cc(S(N)(=O)=O)ccc1OC` (stereo not drawn) [Sulpiride], the inhibition at 100 µM is 0%.
On to `CO/N=C(\C(=O)N[C@@H]1C(=O)N2C(C(=O)O)=C(C[N+]3(C)CCCC3)CS[C@H]12)c1csc(N)n1` [Cefepime Dihydrochloride Monohydrate], for which the inhibition at 100 µM is 0%.
Same read-out and setting: then `Cn1cc(C2=C(c3cn(C4CCN(Cc5ccccn5)CC4)c4ccccc34)C(=O)NC2=O)c2ccccc21` [Enzastaurin (LY317615)], with 34.6%.
`CCCCCCCCCCC[C@@H](C[C@@H]1OC(=O)[C@H]1CCCCCC)OC(=O)[C@H](CC(C)C)NC=O` [Orlistat]: the inhibition at 100 µM turned out to be 0%.
Regarding `CCS(=O)(=O)N1CCN(c2ccc(Nc3ncc(C(N)=O)c(NC4CC4)n3)cc2)CC1` [Cerdulatinib (PRT062070, PRT2070)], the inhibition at 100 µM is 15.9%.
Regarding `Cc1cccc(Nc2ccccc2C(=O)O)c1C` [Mefenamic Acid], the inhibition at 100 µM came out at 21%.
As to `CNCCc1ccccn1` [Betahistine mesylate], the inhibition at 100 µM was found to be 0%.
Regarding `O=C(O)CCc1nc2ccccc2[nH]1` [Procodazole], the inhibition at 100 µM came out at 7.67%.
